{"source": "paper PMC6934184", "about": "“Selective DNA-PKcs inhibition extends the therapeutic index of localized radiotherapy and chemotherapy” (The Journal of Clinical Investigation, 2019)", "target": "T1, CDK5/p35 (Homo sapiens, UniProt Q00535)", "T1 construct": "purchased Thermo Fisher Scientific (Life Technologies) SelectScreen", "T1 sequence (Q00535 whole entry)": "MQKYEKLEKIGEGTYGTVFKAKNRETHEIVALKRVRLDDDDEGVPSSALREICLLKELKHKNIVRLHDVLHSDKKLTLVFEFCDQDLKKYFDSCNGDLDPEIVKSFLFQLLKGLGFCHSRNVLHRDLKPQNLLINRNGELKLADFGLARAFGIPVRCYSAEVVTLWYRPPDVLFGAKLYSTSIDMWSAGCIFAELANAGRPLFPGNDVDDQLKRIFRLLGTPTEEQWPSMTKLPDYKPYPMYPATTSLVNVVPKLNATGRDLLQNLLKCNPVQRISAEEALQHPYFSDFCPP", "T1 sequence (Q15078 whole entry partner)": "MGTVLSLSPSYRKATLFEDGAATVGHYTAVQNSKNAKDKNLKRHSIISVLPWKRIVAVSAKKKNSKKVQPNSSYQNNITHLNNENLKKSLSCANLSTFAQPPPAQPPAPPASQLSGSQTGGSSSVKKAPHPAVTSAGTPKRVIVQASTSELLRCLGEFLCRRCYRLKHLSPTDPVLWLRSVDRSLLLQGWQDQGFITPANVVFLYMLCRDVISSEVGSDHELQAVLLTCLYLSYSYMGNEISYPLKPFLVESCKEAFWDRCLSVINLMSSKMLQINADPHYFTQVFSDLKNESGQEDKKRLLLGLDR", "test": "SelectScreen Z'LYTE", "assay_type": "biochemical", "in_short": "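SelectScreen broad panel; activity (Z'LYTE, Adapta) plus binding formats. ATP: Km app for CSF1R Z'LYTE; 10 for CAMK1 Adapta. Readout = % per kinase.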"}
{"smiles": "CN(C(=O)CN1CCOCC1)c1ccc2sc3c(-c4cccc5c(=O)cc(N6CC7CCC(C6)O7)oc45)cccc3c2c1", "note": "[NU5455]", "values": [{"measurement": "inhibition at 1 µM", "result": -8.6, "unit": "%"}]}
